Converted amounts (≈) assume the structure as drawn. The source made the active and inactive calls. No cut-off for these calls is given here. Where a SMILES comes first, the peptide text is derived from it.
How the values were obtained:
Pseudomonas aeruginosa [1] = assay: Antimicrobial activity against Pseudomonas aeruginosa ATCC BAA-427 assessed as inhibition of bacterial growth by broth dilution method; format: functional
Staphylococcus aureus [2] = assay: Antimicrobial activity against multidrug-resistant Staphylococcus aureus ATCC BAA-44 assessed as inhibition of bacterial growth by broth dilution method; format: functional
[3] = Retention time of the compound analysed by RP-HPLC analysis; format: physicochemical
Staphylococcus aureus [4] = assay: Antimicrobial activity against Staphylococcus aureus ATCC 25923 assessed as inhibition of bacterial growth by broth dilution method; format: functional
Bacillus subtilis = assay: Antimicrobial activity against Bacillus subtilis ATCC 6633 assessed as inhibition of bacterial growth by broth dilution method; format: functional
Escherichia coli [5] = assay: Antimicrobial activity against Escherichia coli ATCC 25922 assessed as inhibition of bacterial growth by broth dilution method; format: functional
Staphylococcus aureus [6] = assay: Antimicrobial activity against methicilin- resistant Staphylococcus aureus ATCC 33591 assessed as inhibition of bacterial growth by broth dilution method; format: functional
Klebsiella pneumoniae = assay: Antimicrobial activity against Klebsiella pneumoniae ATCC 27736 assessed as inhibition of bacterial growth by broth dilution method; format: functional
[7] = Disruption of membrane integrity in human RBC cells assessed as membrane damage at 150 uM incubated for 15 min by Alexa fluor-annexin V staining based assay (reference value: 0%); format: functional, Red blood cell; conditions: 0.25 h
Pseudomonas aeruginosa [8] = assay: Antibacterial activity against Pseudomonas aeruginosa BAA 427 assessed as resistance development by measuring fold change in MIC after 30 passages with serially diluted peptides; format: functional
[9] = Hemolytic activity in human RBC measured after 40 mins; format: ADME, tissue-based, Erythrocyte; conditions: red blood cells (RBC)
Cell membrane = assay: Induction of membrane damage in Escherichia coli assessed as disruption of membrane integrity at 10 uM incubated for 30 min by propidium iodide staining based assay
Escherichia coli [10] = assay: Antibacterial activity against Escherichia coli ATCC 25922 in presence of 4.5 mM KCl measured after 1 hr; format: functional
Escherichia coli [11] = assay: Antibacterial activity against Escherichia coli ATCC 25922 in presence of 150 mM NaCl measured after 1 hr; format: functional
Escherichia coli [12] = assay: Antibacterial activity against Escherichia coli ATCC 25922 in presence of temperature ranging from 4 to 90 degC measured after 1 hr; format: functional
Escherichia coli [13] = assay: Antibacterial activity against Escherichia coli ATCC 25922 in presence of 10 percent fresh human serum measured after 1 hr; format: functional
Pseudomonas aeruginosa [14] = assay: Antibacterial activity against Pseudomonas aeruginosa infected in Balb/c mouse stomach assessed as animal survival at 100 mg/kg, ip after 7 days; format: functional; conditions: 168 h, time 7 day

| Compound | MIC (Pseudomonas aeruginosa [1]) | MIC (Staphylococcus aureus [2]) | Retention_time [3] | MIC (Staphylococcus aureus [4]) | MIC (Bacillus subtilis) | MIC (Escherichia coli [5]) | MIC (Staphylococcus aureus [6]) | MIC (Klebsiella pneumoniae) | Activity [7] | further results |
| --- | --- | --- | --- | --- | --- | --- | --- | --- | --- | --- |
| CC(C)C[C@H](NC(=O)[C@H](CCCNC(=N)N)NC(=O)CNC(=O)[C@H](CC(C)C)NC(=O)[C@@H](NC(=O)[C@@H](N)CCCCN)C(C)C)C(=O)N[C@H](C(N)=O)C(C)C (H-KVLGRLV-NH2) | > 100 µM | > 100 µM | 8.1 min | > 100 µM | > 100 µM | > 100 µM | > 100 µM | > 100 µM |  |  |
| CC[C@H](C)[C@H](NC(=O)CN)C(=O)NCC(=O)N[C@@H](C)C(=O)N[C@H](C(=O)N[C@@H](CC(C)C)C(=O)N[C@@H](CCCCN)C(=O)N[C@H](C(=O)N[C@@H](CC(C)C)C(=O)N[C@H](C(=O)N[C@H](C(=O)NCC(=O)N[C@@H](CC(C)C)C(=O)N1CCC[C@H]1C(=O)N[C@@H](C)C(=O)N[C@@H](CC(C)C)C(=O)N[C@H](C(=O)N[C@@H](CO)C(=O)N[C@@H](Cc1c[nH]c2ccccc12)C(=O)N[C@H](C(=O)N[C@@H](CCCCN)C(=O)N[C@@H](CCCNC(=N)N)C(=O)N[C@@H](CCCCN)C(=O)N[C@@H](CCCNC(=N)N)C(=O)N[C@@H](CCC(N)=O)C(=O)N[C@@H](CCC(N)=O)C(N)=O)[C@@H](C)CC)[C@@H](C)CC)[C@@H](C)O)[C@@H](C)O)C(C)C)C(C)C [MELITTIN] |  |  |  |  |  |  |  |  | 99.6% |  |
| GENTAMICIN | 1.35 µM | 1.35 µM |  | 0.67 µM |  |  |  |  |  | fold change (FC) (Pseudomonas aeruginosa [8]): 16 |
| CC(C)C[C@H](NC(=O)[C@H](CCCNC(=N)N)NC(=O)CNC(=O)[C@H](CC(C)C)NC(=O)[C@@H](NC(=O)[C@@H](CCCCN)NC(=O)[C@@H](NC(=O)[C@H](CC(C)C)NC(=O)[C@H](CCCNC(=N)N)NC(=O)CNC(=O)[C@H](CC(C)C)NC(=O)[C@@H](NC(=O)[C@H](N)CCCCN)C(C)C)C(C)C)C(C)C)C(=O)N[C@H](C(N)=O)C(C)C | 4 µM (≈ 6.2 µg/mL) | 2 µM (≈ 3.1 µg/mL) | 16.5 min | 2 µM (≈ 3.1 µg/mL) | 2 µM (≈ 3.1 µg/mL) | 1 µM (≈ 1.55 µg/mL) | 2 µM (≈ 3.1 µg/mL) | 4 µM (≈ 6.2 µg/mL) | 13.9% | HC50 at 40 min [9]: 1.93 mM; Activity (Cell membrane): Active; MIC (Escherichia coli [10]): 2 µM; MIC (Escherichia coli [11]): 1 µM; MIC (Escherichia coli [12]): 2 µM; MIC (Escherichia coli [13]): 2 µM |
| C[C@H]1COc2c(N3CCN(C)CC3)c(F)cc3c(=O)c(C(=O)O)cn1c23 [LEVOFLOXACIN] |  |  |  |  |  |  |  |  |  | survival at 100 mg/kg (Pseudomonas aeruginosa [14]): 100% |

Source: ChEMBL document CHEMBL5030557, “Tandem Repeat of a Short Human Chemerin-Derived Peptide and Its Nontoxic d-Lysine-Containing Enantiomer Display Broad-Spectrum Antimicrobial and Antitubercular Activities” (J Med Chem, 2021)
